Experiments:
[1] = system: hearts of phenobarbital anaesthetized rats; assay: Infarcted area after 60 minutes coronary artery occlusion and 180 minutes of reperfusion in anaesthetized rats; type: in vivo, rat; details: for LA/AR ratio: normothermia (36.5-37.5° C.), mean±standard error margin, n=6, P<0.001, pretreated 25 minutes prior to CAO; for IA (% AR) / % Reduction: rat, 60 min CAO and 180 min reperfusion; for IA (% AR): i.v. bolus 25 minutes prior to CAO, BMOV 3.3 mg/kg, DMA 3.0 mg/kg; for % Reduction: reduction of IA (% AR) versus control
Description: Area at risk (AR) and infarcted area (IA) were determined in hearts of phenobarbital anaesthetized rats after 60 minutes coronary artery occlusion (CAO) and 180 minutes of reperfusion. […] The mean AR expressed as percentage of the left ventricle was not different between the control and the experimental group.

deep burn wounds, dermis = assay: Deep burn wound model in the Yorkshire pig, preservation of the dermis; type: in vivo, Yorkshire White; details: intravenously in a single dose; for % Preservation of dermis: equal dose in g/kg bodyweight
Excerpt: The Yorkshire pig has been chosen as the experimental animal because of all animal species this domestic pig seems to be the one with morphological and functional skin characteristics nearest to human skin and so best fulfils the requirements of a model for human skin. In basic architecture it resembles human skin in the relative thickness of the epidermis and dermis, the presence of epidermal ridges, a distinct dermal papillary layer and a deep layer of subdermal fat. Compared to human the elastic fibre content of porcine dermis is relatively low, but higher than in any other species. […] Studies on the proliferation rate of porcine epidermis show parallels with those of humans. The keratinous proteins are similar. Unlike the skin of rodents, the follicular pattern in pigs and humans is relatively sparse and arranged as single hairs or in groups of two or three follicles. […] The regulation of body temperature by the skin is more evident in humans than in the pig. In the skin of the pig no eccrine glands are found. It does have apocrine glands, but their role in thermoregulation remains debatable. The vascular anatomy of pig skin consists of a three layered network; lower, mid-dermal and sub epidermal. The size, orientation and distribution of the vessels are strikingly similar to human skin, but it does differ from humans in that the sub epidermal network is less dense. The vascularisation of the lower region of the follicle corresponds to that in humans. The healing of deep dermal bums, which depends on this phenomenon, might also be analogous. Studies on the thermal properties of porcine skin as a function of depth have been performed by measuring the tissue water content.
Protocol 1a: Twelve identical deep burn wounds were inflicted in each animal. The animal model used is developed in the Burn Research Institute (Beverwijk, The Netherlands) and is a standard for all of the experimental burn wound research. The model is also accepted by the animal experimental commission of the University of Amsterdam.
Protocol 1b: Six biopsies of 6 mm of the burned area were taken from each big and transferred to a non-burned area. Six biopsies of 6 mm of the non-burned area were be taken from each pig and transferred to a burned area. (Determination of the indirect injury) Animals: pig, Yorkshire White, female, +/− 30 kg. […]

swine myocardium = details: also when administered after the onset of ischaemia; cited from earlier work

| SMILES | LA/AR ratio [1] | IA (% AR) [1] | % Reduction [1] | protection of structures in the dermis (deep vascular plexus, hair-adnexes, sweat glands) (deep burn wounds, dermis) | % Preservation of dermis (deep burn wounds, dermis) | infarct size (swine myocardium) |
| --- | --- | --- | --- | --- | --- | --- |
| Cc1occc(=O)c1[O-].Cc1occc(=O)c1[O-].[O]=[V+2] [BMOV, bis(maltolato)oxovanadium(IV)] | 45±3% | 45 % AR | 36% | protected | 40-50% | – |
| CN(C)c1nc(N)c(C(=O)N=C(N)N)nc1Cl [DMA, dimethylamiloride] | 45±3% | 55 % AR | 21% | protected | 20% | – |
| CS(=O)(=O)O.CS(=O)(=O)c1cc(C(=O)NC(=N)N)ccc1N1CCCCC1 [HOE 694, (3-methylsulfonyl-4-piperidinobenzoyl)-guanidine methanesulfonate] | – | – | – | – | – | substantial reduction of the infarct size |
